Experimental data published in the supplement of paper PMC11451515.

System: SEM cells
Experiment: cell viability relative to DMSO control; higher = less cytotoxic
Conditions: 48 h
Procedure, shortened: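 NOMO1 or SEM (500 cells/well) or P12-Ichikawa (1000 cells/well) leukemia cells were adapted for at least four passages in each medium. They were seeded in 1536-well plates (5 μl) and pin-dosed with library compounds in DMSO over an 11-point threefold series, 47 μM to 0.79 nM. CellTiter-Glo One luminescence was read after 48 h at 37°C. Viability is the per-plate percentage relative to DMSO wells, with cell-free wells as background.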

[1] = HPLM + 10% dialyzed FBS, 0.000781 µM
[2] = HPLM + 10% dialyzed FBS, 0.00234 µM
[3] = HPLM + 10% dialyzed FBS, 0.00702 µM
[4] = HPLM + 10% dialyzed FBS, 0.0211 µM
[5] = HPLM + 10% dialyzed FBS, 0.0632 µM
[6] = HPLM + 10% dialyzed FBS, 0.19 µM
[7] = HPLM + 10% dialyzed FBS, 0.569 µM
[8] = HPLM + 10% dialyzed FBS, 1.71 µM
[9] = HPLM + 10% dialyzed FBS, 5.12 µM
[10] = HPLM + 10% dialyzed FBS, 15.4 µM
[11] = HPLM + 10% dialyzed FBS, 46.1 µM
[12] = RPMI 5 mM glucose + 10% FBS, 0.000781 µM
[13] = RPMI 5 mM glucose + 10% FBS, 0.00234 µM
[14] = RPMI 5 mM glucose + 10% FBS, 0.00702 µM
[15] = RPMI 5 mM glucose + 10% FBS, 0.0211 µM
[16] = RPMI 5 mM glucose + 10% FBS, 0.0632 µM
[17] = RPMI 5 mM glucose + 10% FBS, 0.19 µM
[18] = RPMI 5 mM glucose + 10% FBS, 0.569 µM
[19] = RPMI 5 mM glucose + 10% FBS, 1.71 µM
[20] = RPMI 5 mM glucose + 10% FBS, 5.12 µM
[21] = RPMI 5 mM glucose + 10% FBS, 15.4 µM
[22] = RPMI 5 mM glucose + 10% FBS, 46.1 µM
[23] = RPMI 5 mM glucose + 10% dialyzed FBS, 0.000781 µM
[24] = RPMI 5 mM glucose + 10% dialyzed FBS, 0.00234 µM
[25] = RPMI 5 mM glucose + 10% dialyzed FBS, 0.00702 µM
[26] = RPMI 5 mM glucose + 10% dialyzed FBS, 0.0211 µM
[27] = RPMI 5 mM glucose + 10% dialyzed FBS, 0.0632 µM
[28] = RPMI 5 mM glucose + 10% dialyzed FBS, 0.19 µM
[29] = RPMI 5 mM glucose + 10% dialyzed FBS, 0.569 µM
[30] = RPMI 5 mM glucose + 10% dialyzed FBS, 1.71 µM
[31] = RPMI 5 mM glucose + 10% dialyzed FBS, 5.12 µM
[32] = RPMI 5 mM glucose + 10% dialyzed FBS, 15.4 µM
[33] = RPMI 5 mM glucose + 10% dialyzed FBS, 46.1 µM

SMILES	cell viability [1]	cell viability [2]	cell viability [3]	cell viability [4]	cell viability [5]	cell viability [6]	cell viability [7]	cell viability [8]	cell viability [9]	cell viability [10]	cell viability [11]	cell viability [12]	cell viability [13]	cell viability [14]	cell viability [15]	cell viability [16]	cell viability [17]	cell viability [18]	cell viability [19]	cell viability [20]	cell viability [21]	cell viability [22]	cell viability [23]	cell viability [24]	cell viability [25]	cell viability [26]	cell viability [27]	cell viability [28]	cell viability [29]	cell viability [30]	cell viability [31]	cell viability [32]	cell viability [33]
CCOC(=O)c1cncn1[C@H](C)c1ccccc1	101%	92.8%	92.6%	89.6%	108%	96.9%	23.1%	106%	113%	96.2%	89.8%	111%	110%	97.4%	109%	112%	114%	21.6%	107%	117%	108%	111%	118%	116%	93.8%	109%	128%	102%	26.4%	115%	98.9%	106%	97.7%
Cc1cc(Nc2cc(CN3CCOCC3)c3nc(C)c(Cc4ccc(Cl)cc4F)n3n2)[nH]n1	119%	116%	113%	108%	116%	105%	74.6%	60.5%	51.4%	22.9%	21.4%	113%	107%	114%	109%	108%	83.2%	61.6%	58.8%	49.4%	14.8%	6.83%	109%	129%	122%	92.4%	106%	95.2%	66.1%	52.7%	40.9%	11.6%	9.11%
CN1c2ccccc2C(=O)N2CCc3c([nH]c4ccccc34)C21 (stereo unspecified)	136%	120%	114%	127%	125%	120%	122%	131%	125%	117%	101%	–	–	–	–	–	–	–	–	–	–	–	111%	105%	120%	114%	104%	112%	125%	109%	102%	89.1%	94.7%
COc1cc2nc(-c3cc(F)ccc3O)nc(N[C@@H]3CNC[C@H]3C(C)(C)O)c2cc1OC	57.3%	96.4%	90.5%	97.4%	89.5%	59.6%	45.6%	37.2%	28.3%	16.1%	7.01%	59.9%	101%	99.6%	94.6%	90.4%	62.3%	54.6%	35.7%	25.6%	14.5%	5.78%	46.9%	94.4%	80.5%	86.5%	64%	45.2%	34.6%	30.6%	15.8%	14.3%	6.75%
